In patent US20090291950A1, “BICYCLIC HETEROARYL INHIBITORS OF PDE4” (KALYPSYS, INC., priority 2006, published 2009):

Tests used:
PDE4B = biological target: T1, PDE4B (Homo sapiens, UniProt Q07343); assay: coupled PDE/AK bioluminescent assay; format: biochemical; conditions: catalytic domain of PDE4B
T1 construct: hexahistidine (His6) (N); made in house
Excerpt: Phosphodiesterases regulate the activity of the second messenger cyclic adenosine monophosphate (cAMP) by hydrolyzing cAMP to adenosine monophosphate (AMP). We developed a novel coupled PDE/AK bioluminescent high-throughput assay to measure the activity of phosphodiesterases. In the PDE/AK assay, the AMP produced from the hydrolysis of cAMP by phosphodiesterase is converted to adenosine diphosphate (ADP) by the phosphotransferase activity of adenylate kinase (also known as ADK or myokinase). Adenylate kinase will catalyze the conversion of 1 mole of AMP and 1 mole of ATP into 2 moles of ADP. Thus the conversion of AMP to ADP will result in the subsequent loss of ATP. The decrease in ATP concentration can be monitored as light output using luciferase in a reaction that requires ATP to produce light. The PDE/AK assay uses luciferase, which catalyzes the production of light from ATP present in the reaction mix. The amount of emitted light is inversely proportional to the level of AMP present in the reaction. Test compounds are incubated with the phosphodiesterases and phosphodiesterase inhibitors will decrease the rate of cAMP hydrolysis and decrease the subsequent production of AMP. Thus phosphodiesterase inhibitors will decrease the conversion of ATP to ADP and result in the greatest emission of light.
Compounds may be screened for functional potency in in vitro biochemical assays for their ability to inhibit the activity of phosphodiesterase (PDE) enzymes. A novel coupled PDE/AK assay was utilized to measure the inhibitory activity of compounds on PDE isoforms. The catalytic domain of PDE4B was fused to an amino-terminus hex-histidine affinity tag and purified. PDE4B enzyme was incubated with compounds for 10 minutes. Cyclic AMP substrate, ATP and adenylate kinase were then added to the PDE enzyme mix and incubated for 45 minutes at room temperature. A commercial ATP detection assay, Perkin Elmer's easyLite ATP detection reagent, was then added to measure the relative amount of ATP present in the reaction. After 10 minute incubation, the luminescent signal was quantitated with either the Perkin Elmer Viewlux or Molecular Devices Acquest or Analyst. Roflumilast and Rolipram are the positive controls used in the assay.
The PDE/AK assay can be performed with any cAMP dependent phosphodiesterase, and can be performed in 96-, 384-, or 1536-well plates. […] Specifically, the use of radioactive substrates in a phosphodiesterase activity assay requires special protocols for handling and waste disposal, and reduced throughput. Modified substrates add the additional complexity of potentially altering the binding to the phosphodiesterase catalytic site. Fluorescently modified substrates may cause fluorescence artifacts that may interfere in the interpretation of assay results. The use of beads that selectively bind to either the cAMP or AMP may cause an additional complexity in reagent handling. The use of antibodies that selectively bind to either cAMP or AMP can be extremely costly with a relatively small signal to noise ratio. Therefore, the novel PDE/AK assay represents a simple, cost-effective alternative to known methods.

[1] = test system: dry eye (corneal staining, tear breakup time); assay: Lacrimal gland inflammation-induced dry eye in rabbits; format: in vivo; conditions: topical ocular BID, rabbit ConA dry eye
Excerpt: A more detailed description of the assay used herein may be found in Naglehout, T J et al. 2005, “Preservation of Tear Film Integrity and Inhibition of Corneal Injury by Dexamethasone in a Rabbit Model of Lacrimal Gland Inflammation-Induced Dry Eye,”J. Ocular Pharm. Ther., 21:2. 139-148, the disclosure of which is hereby incorporated by reference as if written herein in its entirety. Rabbits (n=4/group) were randomized into treatment groups and dosed topically BID with maxidex vehicle or test drug beginning one day prior to initiation of dry eye. Each rabbit received bilateral lacrimal gland injections of saline or ConA (300 μg/30 μl) and topical ocular dosing was continued BID throughout the study. Desiccation was initiated 1-2 hours following lacrimal gland injection by placing conscious rabbits in the environmental chamber (10-15% humidity/72° F.). Following 72 consecutive hours of exposure to this dry environment, the animals were anesthetized and sutures were placed in each upper and lower eyelid and lifted to form a corneal/conjunctival cup. Methylene blue dye (1 mL, 1% in dH2O) was added to the cup for three minutes and the excess removed by washing with 200 mL BSS®. The contralateral eye was then stained using the same procedure. Rabbits were euthanized immediately following the staining procedure and the eyes were excised. The corneas were isolated with a trephine and the 9.5-mm punch of the cornea was placed in 2 mL acetone/saturated sodium sulfate (7:3, vol./vol.). Absorbance of the extracted dye was determined at 660 nm. TBUT was quantified in a separate group of treated animals. TBUT was determined by instilling 5 μL sodium fluorescein into the cul de sac and manually blinking the lids to distribute the fluorescein within the tear film. Under slit lamp observation, the eye was held open and the time whereby one or more black spots or streaks appeared in the precorneal tear film was recorded. The rabbits were euthanized 3 days following ConA inj ection.

[2] = 1 × 10^−2 percent concentration
[3] = 1 × 10^−4 percent concentration
[4] = 1 × 10^−6 percent concentration

T1 sequence (Q07343 330-659 limits assumed, species assumed): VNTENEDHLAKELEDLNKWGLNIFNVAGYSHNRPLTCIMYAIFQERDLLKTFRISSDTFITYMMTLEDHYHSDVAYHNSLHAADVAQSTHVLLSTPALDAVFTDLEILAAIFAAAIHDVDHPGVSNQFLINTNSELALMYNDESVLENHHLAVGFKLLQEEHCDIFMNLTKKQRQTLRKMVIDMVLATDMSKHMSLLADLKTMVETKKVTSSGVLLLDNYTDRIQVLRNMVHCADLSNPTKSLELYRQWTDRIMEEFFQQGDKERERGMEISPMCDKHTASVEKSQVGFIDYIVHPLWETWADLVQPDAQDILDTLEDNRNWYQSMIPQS

Compound | IC50 (PDE4B) [nM] | further results
COc1ccc2c(Nc3c(Cl)cccc3Cl)ccnc2c1OC1CCCC1 [Example 4, 8-(Cyclopentyloxy)-N-(2,6-dichlorophenyl)-7-methoxyquinolin-4-amine] | > 1000 | –
COc1ccc2c(Nc3c(Br)cncc3Br)ccnc2c1OC1CCCC1 [Example 16, 8-(Cyclopentyloxy)-N-(3,5-dibromopyridin-4-yl)-7-methoxyquinolin-4-amine] | > 1000 | –
COc1ccc2c(Nc3c(Cl)cncc3Cl)ncnc2c1OC1CCCC1 [Example 2, 8-(Cyclopentyloxy)-N-(3,5-dichloropyridin-4-yl)-7-methoxyquinazolin-4-amine] | > 1000 | –
COc1ccc2c(c1OC1CCCC1)OCCC2Nc1c(Cl)cncc1Cl (centres unmarked) [Example 17, 3,5-Dichloro-N-(8-(cyclopentyloxy)-7-methoxychroman-4-yl)pyridin-4-amine] | > 1000 | –
COc1ccc2c(Nc3c(Cl)c(Cl)nc(Cl)c3Cl)ccnc2c1OC1CCCC1 [Example 14, 8-(Cyclopentyloxy)-7-methoxy-N-(perchloropyridin-4-yl)quinolin-4-amine] | > 1000 | –
COc1ccc2c(Cc3c(Cl)cncc3Cl)ccnc2c1OC1CCCC1 [Example 6, 8-(Cyclopentyloxy)-4-[(3,5-dichloropyridin-4-yl)methyl]-7-methoxyquinoline] | > 1000 | –
COc1ccc2c(Nc3c(Cl)cncc3Cl)ccnc2c1OC1CCCC1 [Example 5, 8-(Cyclopentyloxy)-N-(3,5-dichloropyridin-4-yl)-7-methoxyquinolin-4-amine] | > 1000 | –
COc1ccc2c(Nc3c(Cl)cncc3Cl)cc(OCCCN(C)C)nc2c1OC1CCCC1 [Example 29, 8-(Cyclopentyloxy)-N-(3,5-dichloropyridin-4-yl)-2-(3-(dimethylamino)propoxy)-7-methoxyquinolin-4-amine] | ≤ 1000 | –
COc1ccc2c(Nc3c(Cl)cncc3Cl)nccc2c1OC1CCCC1 [Example 8] | ≤ 1000 | –
COc1ccc2c(Nc3c(Cl)cncc3Cl)cc(OCCO)nc2c1OC1CCCC1 [Example 27, 2-(8-(Cyclopentyloxy)-4-(3,5-dichloropyridin-4-ylamino)-7-methoxyquinolin-2-yloxy)ethanol] | ≤ 1000 | –
COc1ccc2c(Nc3c(Cl)cncc3Cl)cc(Cl)nc2c1OC1CCCC1 [Example 24, 2-Chloro-8-(cyclopentyloxy)-N-(3,5-dichloropyridin-4-yl)-7-methoxyquinolin-4-amine] | ≤ 1000 | –
COc1ccc2c(NCc3c(Cl)cccc3Cl)coc2c1OC1CCCC1 [Example 12, 7-(Cyclopentyloxy)-N-(2,6-dichlorobenzyl)-6-methoxybenzofuran-3-amine] | > 1000 | –
COc1ccc2c(Nc3c(Cl)cncc3Cl)cc(N(C)C)nc2c1OC1CCCC1 [Example 21, 8-(Cyclopentyloxy)-N4-(3,5-dichloropyridin-4-yl)-7-methoxy-N2,N2-dimethylquinoline-2,4-diamine] | ≤ 1000 | –
COc1ccc2c(Cc3c(Cl)cncc3Cl)ncnc2c1OC1CCCC1 [Example 3, 8-(Cyclopentyloxy)-4-[(3,5-dichloropyridin-4-yl)methyl]-7-methoxyquinazoline] | ≤ 1000 | –
COc1ccc2c(Nc3c(Cl)cncc3Cl)cc(N)nc2c1OC1CCCC1 [Example 23, 8-(Cyclopentyloxy)-N4-(3,5-dichloropyridin-4-yl)-7-methoxyquinoline-2,4-diamine] | ≤ 1000 | Activity at Percent Concentration Tested [1, 2]: Inactive; Activity at Percent Concentration Tested [1, 3]: Inactive; Activity at Percent Concentration Tested [1, 4]: Inactive
COc1ccc2c(Nc3c(Cl)cncc3Cl)c(Cl)c(OCCN(C)C)nc2c1OC1CCCC1 [Example 26, 3-Chloro-8-(cyclopentyloxy)-N-(3,5-dichloropyridin-4-yl)-2-(2-(dimethylamino)ethoxy)-7-methoxyquinolin-4-amine] | ≤ 1000 | –
COc1ccc2c(Nc3c(Cl)cccc3Cl)nccc2c1OC1CCCC1 [Example 7, 5-(Cyclopentyloxy)-N-(2,6-dichlorophenyl)-6-methoxyisoquinolin-1-amine] | > 1000 | –
COc1ccc2c(Nc3c(Cl)cccc3Cl)ccnc2c1OC [Example 11, N-(2,6-Dichlorophenyl)-7,8-dimethoxyquinolin-4-amine] | > 1000 | –
COc1ccc2c(C(=O)Nc3c(Cl)cncc3Cl)coc2c1OC1CCCC1 [Example 18, 7-(Cyclopentyloxy)-N-(3,5-dichloropyridin-4-yl)-6-methoxybenzofuran-3-carboxamide] | > 1000 | –
COc1ccc2c(Nc3c(Cl)cncc3Cl)cc(OCCN(C)C)nc2c1OCC1CC1 [Example 30, 8-(Cyclopropylmethoxy)-N-(3,5-dichloropyridin-4-yl)-2-(2-(dimethylamino)ethoxy)-7-methoxyquinolin-4-amine] | ≤ 1000 | Activity at Percent Concentration Tested [1, 2]: Inactive; Activity at Percent Concentration Tested [1, 3]: Inactive; Activity at Percent Concentration Tested [1, 4]: Inactive
COc1cc(Nc2c(Cl)cncc2Cl)c2ccc(OC)c(OC3CCCC3)c2n1 [Example 19, 8-(Cyclopentyloxy)-N-(3,5-dichloropyridin-4-yl)-2,7-dimethoxyquinolin-4-amine] | ≤ 1000 | –
COc1ccc2c(Nc3c(Cl)cncc3Cl)cc(OCCN3CCOCC3)nc2c1OC1CCCC1 [Example 28, 8-(Cyclopentyloxy)-N-(3,5-dichloropyridin-4-yl)-7-methoxy-2-(2-morpholinoethoxy)quinolin-4-amine] | ≤ 1000 | –
COc1ccc2c(Nc3c(Cl)cnc(Cl)c3Cl)ccnc2c1OC1CCCC1 [Example 13, 8-(Cyclopentyloxy)-7-methoxy-N-(2,3,5-trichloropyridin-4-yl)quinolin-4-amine] | > 1000 | –
COc1ccc2c(Cc3c(Cl)cncc3Cl)nccc2c1OC1CCCC1 [Example 9, 5-(Cyclopentyloxy)-1-[(3,5-dichloropyridin-4-yl)methyl]-6-methoxyisoquinoline] | > 1000 | –
CCOc1cc(Nc2c(Cl)cncc2Cl)c2ccc(OC)c(OC3CCCC3)c2n1 [Example 20, 8-(Cyclopentyloxy)-N-(3,5-dichloropyridin-4-yl)-2-ethoxy-7-methoxyquinolin-4-amine] | ≤ 1000 | –
COc1ccc2c(Nc3c(C)cncc3C)ccnc2c1OC1CCCC1 [Example 15, 8-(Cyclopentyloxy)-N-(3,5-dimethylpyridin-4-yl)-7-methoxyquinolin-4-amine] | > 1000 | –
COc1ccc2c(Nc3c(Cl)cncc3Cl)coc2c1OC1CCCC1 [Example 10, 3,5-Dichloro-N-[7-(cyclopentyloxy)-6-methoxybenzofuran-3-yl]pyridine-4-amine] | > 1000 | –
CNc1cc(Nc2c(Cl)cncc2Cl)c2ccc(OC)c(OC3CCCC3)c2n1 [Example 22, 8-(Cyclopentyloxy)-N4-(3,5-dichloropyridin-4-yl)-7-methoxy-N2-methylquinoline-2,4-diamine] | ≤ 1000 | –
COc1ccc2c(Nc3c(Cl)cccc3Cl)ncnc2c1OC1CCCC1 [Example 1, 8-(Cyclopentyloxy)-N-(2,6-dichlorophenyl)-7-methoxyquinazolin-4-amine] | > 1000 | –
